T1: FH-hGlyT2; human GlyT2 (Homo sapiens, UniProt Q9Y345)
T1 sequence (Q9Y345 1-797): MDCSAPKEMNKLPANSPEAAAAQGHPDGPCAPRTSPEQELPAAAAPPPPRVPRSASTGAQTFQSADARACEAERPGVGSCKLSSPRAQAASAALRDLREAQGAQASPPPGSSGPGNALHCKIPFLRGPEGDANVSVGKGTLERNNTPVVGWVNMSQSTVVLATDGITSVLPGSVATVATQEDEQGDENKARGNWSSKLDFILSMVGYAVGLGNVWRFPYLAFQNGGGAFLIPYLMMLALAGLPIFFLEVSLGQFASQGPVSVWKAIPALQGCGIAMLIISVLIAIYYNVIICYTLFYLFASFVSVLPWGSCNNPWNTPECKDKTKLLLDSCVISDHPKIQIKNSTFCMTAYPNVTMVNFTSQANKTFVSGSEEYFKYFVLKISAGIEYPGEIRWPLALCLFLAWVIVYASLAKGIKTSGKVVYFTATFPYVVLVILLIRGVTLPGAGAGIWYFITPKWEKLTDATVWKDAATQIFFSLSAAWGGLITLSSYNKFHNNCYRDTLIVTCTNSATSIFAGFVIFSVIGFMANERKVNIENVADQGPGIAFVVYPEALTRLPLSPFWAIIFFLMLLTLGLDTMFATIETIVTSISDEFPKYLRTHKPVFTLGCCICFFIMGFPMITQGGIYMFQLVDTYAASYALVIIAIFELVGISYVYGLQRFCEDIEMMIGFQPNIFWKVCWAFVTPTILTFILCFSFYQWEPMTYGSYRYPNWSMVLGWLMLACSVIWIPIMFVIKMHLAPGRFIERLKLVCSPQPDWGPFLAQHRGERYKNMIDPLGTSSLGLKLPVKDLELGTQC


Assays:
FH-hGlyT2; human GlyT2 = target: T1, FH-hGlyT2; human GlyT2; experiment: glycine uptake inhibition in PAE cells; type: cell-based
[1] = substrate: NCC(=O)O; experiment: glycine uptake in PAE cells; type: cell-based, Homo sapiens

Molecule	IC50 (FH-hGlyT2; human GlyT2; pH 7.5, 10 min uptake) [nM]	other results
O=c1[nH]c2c(c(=O)[nH]1)CCN(Cc1ccccc1)C2 [Lead 3]	33200	
O=C(O)CCSc1[nH]c(=O)nc2[nH]c(=O)[nH]c12 [compound 1, ZINC6620309]	478 ± 28	
CN(CC[C@@H](Oc1ccc(-c2ccccc2)cc1)c1ccc(F)cc1)CC(=O)O [ALX5407, reference compound]		IC50 (FH-hGlyT2; human GlyT2; slow rate of inhibition, data not shown): 1800 nM
FH-hGlyT2; human GlyT2 (Homo sapiens) (protein) MDCSAPKEMNKLPANSPEAAAAQGHPDGPCAPRTSPEQELPAAAAPPPPRVPRSASTGAQTFQSADARACEAERPGVGSCKLSSPRAQAASAALRDLREAQGAQASPPPGSSGPGNALHCKIPFLRGPEGDANVSVGKGTLERNNTPVVGWVNMSQSTVVLATDGITSVLPGSVATVATQEDEQGDENKARGNWSSKLDFILSMVGYAVGLGNVWRFPYLAFQNGGGAFLIPYLMMLALAGLPIFFLEVSLGQFASQGPVSVWKAIPALQGCGIAMLIISVLIAIYYNVIICYTLFYLFASFVSVLPWGSCNNPWNTPECKDKTKLLLDSCVISDHPKIQIKNSTFCMTAYPNVTMVNFTSQANKTFVSGSEEYFKYFVLKISAGIEYPGEIRWPLALCLFLAWVIVYASLAKGIKTSGKVVYFTATFPYVVLVILLIRGVTLPGAGAGIWYFITPKWEKLTDATVWKDAATQIFFSLSAAWGGLITLSSYNKFHNNCYRDTLIVTCTNSATSIFAGFVIFSVIGFMANERKVNIENVADQGPGIAFVVYPEALTRLPLSPFWAIIFFLMLLTLGLDTMFATIETIVTSISDEFPKYLRTHKPVFTLGCCICFFIMGFPMITQGGIYMFQLVDTYAASYALVIIAIFELVGISYVYGLQRFCEDIEMMIGFQPNIFWKVCWAFVTPTILTFILCFSFYQWEPMTYGSYRYPNWSMVLGWLMLACSVIWIPIMFVIKMHLAPGRFIERLKLVCSPQPDWGPFLAQHRGERYKNMIDPLGTSSLGLKLPVKDLELGTQC		Km [1]: 123 µM

The next lines start with results.

IC50 (FH-hGlyT2; human GlyT2; pH 7.5, 10 min uptake) [nM]	Molecule	other results
518 ± 66	O=C(O)CCCCSc1ncnc2[nH]c(=O)[nH]c12 [ZINC6865169]	
26 ± 3	N[C@@H](COC(c1cccc(F)c1)c1ccccc1OCc1ccccc1)C(=O)O (stereo partly drawn) [ALX1393, reference compound]	

— article doi:10.1101/510487v2 (biorxiv, 2019)
